Results: ChEMBL document CHEMBL2029220, “Oxaphosphinanes: new therapeutic perspectives for glioblastoma” (J Med Chem, 2012)
Active and inactive are the calls of the source. The rule behind the calls is not given here.

What was measured:
[1] = test system: C6; experiment: Antiproliferative activity against rat C6 cells after 48 hrs by MTT assay; type: functional, cell-based; settings: C6, 48 h
[2] = test system: C6; experiment: Antiproliferative activity against rat C6 cells at 0.1 to 10 uM after 48 hrs by neutral red incorporation assay; type: functional, cell-based
[3] = Cytotoxicity against mouse astrocytes assessed as decrease in cell viability at 1 to 100 uM after 48 hrs by neutral red incorporation assay; type: cell-based; settings: astrocyte
[4] = Cytotoxicity against mouse astrocytes assessed as decrease in cell viability at 1 to 100 uM after 48 hrs by Hoechst 33342 staining; type: cell-based; settings: astrocyte
[5] = Cytotoxicity against mouse astrocytes assessed as decrease in cell viability at 1 to 100 uM after 48 hrs by propidium iodide incorporation assay; type: cell-based; settings: astrocyte
[6] = Cytotoxicity against mouse astrocytes assessed as decrease in cell viability at 1 to 10 uM after 48 hrs by neutral red incorporation assay; type: cell-based; settings: astrocyte
[7] = Cytotoxicity against mouse astrocytes assessed as decrease in cell viability at 1 to 10 uM after 48 hrs by propidium iodide incorporation assay; type: cell-based; settings: astrocyte
[8] = Cytotoxicity against mouse astrocytes assessed as decrease in cell viability at 0.1 uM after 48 hrs by neutral red incorporation assay; type: cell-based; settings: astrocyte
[9] = Cytotoxicity against mouse astrocytes assessed as decrease in cell viability at 0.1 uM after 48 hrs by propidium iodide incorporation assay; type: cell-based; settings: astrocyte
[10] = Cytotoxicity against mouse astrocytes assessed as decrease in cell viability at 0.1 uM after 48 hrs by Hoechst 33342 staining; type: cell-based; settings: astrocyte
[11] = test system: SF-295; experiment: Antiproliferative activity against human SF295 cells at 10 uM after 24 hrs by SRB assay; type: functional, cell-based
[12] = test system: SNB-75; experiment: Antiproliferative activity against human SNB75 cells at 10 uM after 24 hrs by SRB assay; type: functional, cell-based
[13] = Cytotoxicity against mouse astrocytes assessed as decrease in cell viability at 10 uM after 48 hrs by neutral red incorporation assay; type: cell-based; settings: astrocyte
[14] = Cytotoxicity against mouse astrocytes assessed as decrease in cell viability after 48 hrs by propidium iodide incorporation assay; type: cell-based; settings: astrocyte
[15] = Cytotoxicity against mouse astrocytes assessed as decrease in cell viability after 48 hrs by Hoechst 33342 staining; type: cell-based; settings: astrocyte
[16] = test system: C6; experiment: Antiproliferative activity against rat C6 cells at 100 uM after 48 hrs by neutral red incorporation assay; type: functional, cell-based

SMILES | EC50 [1] | also measured
COc1ccc([P@@]2(=O)O[C@H](COCc3ccccc3)[C@@H](OCc3ccccc3)[C@H](OCc3ccccc3)[C@@H]2O)cc1 | 15 µM | –
[N-]=[N+]=N[C@@H]1[C@@H](OCc2ccccc2)[C@H](OCc2ccccc2)[C@@H](COCc2ccccc2)O[P@@]1(=O)c1ccccc1 | 16.7 µM | –
Cc1cccc([P@@]2(=O)O[C@H](COCc3ccccc3)[C@@H](OCc3ccccc3)[C@H](OCc3ccccc3)[C@@H]2O)c1 | > 25 µM | –
O=[P@@]1(c2ccccc2)O[C@H](COCc2ccccc2)[C@@H](OCc2ccccc2)[C@H](OCc2ccccc2)[C@H]1NCc1ccccc1 | 2.68 µM | –
Cc1ccc([P@@]2(=O)O[C@H](COCc3ccccc3)[C@@H](OCc3ccccc3)[C@H](OCc3ccccc3)[C@@H]2O)cc1 | > 25 µM | –
COc1cccc([P@@]2(=O)O[C@H](COCc3ccccc3)[C@@H](OCc3ccccc3)[C@H](OCc3ccccc3)[C@H]2O)c1 | > 25 µM | –
O=C(Nc1ccccc1)N[C@@H]1[C@@H](OCc2ccccc2)[C@H](OCc2ccccc2)[C@@H](COCc2ccccc2)O[P@@]1(=O)c1ccccc1 | 4.4 µM | –
COc1cccc([P@]2(=O)O[C@H](COCc3ccccc3)[C@@H](OCc3ccccc3)[C@H](OCc3ccccc3)[C@@H]2O)c1 | > 25 µM | –
COc1ccc([P@]2(=O)O[C@H](COCc3ccccc3)[C@@H](OCc3ccccc3)[C@H](OCc3ccccc3)[C@H]2O)cc1 | 8.4 µM | –
O=C(O[C@@H]1[C@@H](OCc2ccccc2)[C@H](OCc2ccccc2)[C@@H](COCc2ccccc2)O[P@@]1(=O)c1ccccc1)c1ccccc1 | > 25 µM | –
N[C@H]1[C@@H](OCc2ccccc2)[C@H](OCc2ccccc2)[C@@H](COCc2ccccc2)O[P@@]1(=O)c1ccccc1 | 18.7 µM | –
CSC(=S)O[C@H]1[C@@H](OCc2ccccc2)[C@H](OCc2ccccc2)[C@@H](COCc2ccccc2)O[P@@]1(=O)c1ccccc1 | > 25 µM | –
[N-]=[N+]=N[C@H]1[C@@H](OCc2ccccc2)[C@H](OCc2ccccc2)[C@@H](COCc2ccccc2)O[P@@]1(=O)c1ccccc1 | > 25 µM | –
O=NN(CCCl)C(=O)NCCCl [CARMUSTINE] | – | Activity [2]: Active; Activity [3]: Non-toxic; Activity [4]: Non-toxic; Activity [5]: Non-toxic
Cc1cccc([P@@]2(=O)O[C@H](COCc3ccccc3)[C@@H](OCc3ccccc3)[C@H](OCc3ccccc3)[C@H]2O)c1 | > 25 µM | –
Cc1cccc([P@]2(=O)O[C@H](COCc3ccccc3)[C@@H](OCc3ccccc3)[C@H](OCc3ccccc3)[C@@H]2O)c1 | > 25 µM | –
O=C(O[C@@H]1[C@@H](OCc2ccccc2)[C@H](OCc2ccccc2)[C@@H](COCc2ccccc2)O[P@@]1(=O)c1ccccc1)C(F)(F)F | > 25 µM | –
CC[C@]1(O)C[C@H]2CN(CCc3c([nH]c4ccccc34)[C@@](C(=O)OC)(c3cc4c(cc3OC)N(C=O)[C@H]3[C@@](O)(C(=O)OC)[C@H](OC(C)=O)[C@]5(CC)C=CCN6CC[C@]43[C@@H]65)C2)C1 [VINCRISTINE] | – | Activity [2]: Active; Activity [6]: 60%; Activity [7]: Toxic; Activity [8]: Toxic; Activity [9]: Toxic; Activity [10]: Toxic
O=[P@]1(c2cccc(C(F)(F)F)c2)O[C@H](COCc2ccccc2)[C@@H](OCc2ccccc2)[C@H](OCc2ccccc2)[C@@H]1O | > 25 µM | –
CC(=O)O[C@H]1C(=O)[C@@]2(C)[C@H]([C@H](OC(=O)c3ccccc3)[C@]3(O)C[C@H](OC(=O)[C@H](O)[C@@H](NC(=O)c4ccccc4)c4ccccc4)C(C)=C1C3(C)C)[C@]1(OC(C)=O)CO[C@@H]1C[C@@H]2O [PACLITAXEL] | – | growth inhibition (GI) [11]: Active; growth inhibition (GI) [12]: Active; Activity [2]: Active; Activity [13]: 28%; Activity [14]: Dose-dependent effect; Activity [15]: Dose-dependent effect
Cc1ccc([P@]2(=O)O[C@H](COCc3ccccc3)[C@@H](OCc3ccccc3)[C@H](OCc3ccccc3)[C@H]2O)cc1 | > 25 µM | –
O=[P@@]1(c2cccc(C(F)(F)F)c2)O[C@H](COCc2ccccc2)[C@@H](OCc2ccccc2)[C@H](OCc2ccccc2)[C@H]1O | > 25 µM | –
O=[P@@]1(c2cccc(C(F)(F)F)c2)O[C@H](COCc2ccccc2)[C@@H](OCc2ccccc2)[C@H](OCc2ccccc2)[C@@H]1O | > 25 µM | –

SMILES | EC50 [1] | also measured
O=[P@@]1(c2ccccc2)O[C@H](COCc2ccccc2)[C@@H](OCc2ccccc2)[C@H](OCc2ccccc2)[C@H]1OCc1ccccc1 | 5.3 µM | –
CC(=O)O[C@@H]1[C@@H](OCc2ccccc2)[C@H](OCc2ccccc2)[C@@H](COCc2ccccc2)O[P@@]1(=O)c1ccccc1 | 11.9 µM | –
COc1cccc([P@@]2(=O)O[C@H](COCc3ccccc3)[C@@H](OCc3ccccc3)[C@H](OCc3ccccc3)[C@@H]2O)c1 | > 25 µM | –
C=CCN[C@@H]1[C@@H](OCc2ccccc2)[C@H](OCc2ccccc2)[C@@H](COCc2ccccc2)O[P@@]1(=O)c1ccccc1 | 0.49 µM | –
COc1ccc([P@]2(=O)O[C@H](COCc3ccccc3)[C@@H](OCc3ccccc3)[C@H](OCc3ccccc3)[C@@H]2O)cc1 | 2.9 µM | –
Cc1ccc([P@]2(=O)O[C@H](COCc3ccccc3)[C@@H](OCc3ccccc3)[C@H](OCc3ccccc3)[C@@H]2O)cc1 | > 25 µM | –
O=[P@]1(c2ccccc2)O[C@H](COCc2ccccc2)[C@@H](OCc2ccccc2)[C@H](OCc2ccccc2)[C@@H]1O (single isomer, unassigned) | 12 µM | –
O=[P@]1(c2ccccc2)O[C@H](COCc2ccccc2)[C@@H](OCc2ccccc2)[C@H](OCc2ccccc2)[C@H]1O | 12 µM | –
O=[P@@]1(c2cccc(F)c2)O[C@H](COCc2ccccc2)[C@@H](OCc2ccccc2)[C@H](OCc2ccccc2)[C@H]1O | > 25 µM | –
COc1cccc([P@]2(=O)O[C@H](COCc3ccccc3)[C@@H](OCc3ccccc3)[C@H](OCc3ccccc3)[C@H]2O)c1 | > 25 µM | –
O=[P@]1(c2cccc(F)c2)O[C@H](COCc2ccccc2)[C@@H](OCc2ccccc2)[C@H](OCc2ccccc2)[C@@H]1O | > 25 µM | –
O=[P@]1(c2cccc(F)c2)O[C@H](COCc2ccccc2)[C@@H](OCc2ccccc2)[C@H](OCc2ccccc2)[C@H]1O | > 25 µM | –
Cc1cccc([P@]2(=O)O[C@H](COCc3ccccc3)[C@@H](OCc3ccccc3)[C@H](OCc3ccccc3)[C@H]2O)c1 | > 25 µM | –
COc1ccc([P@@]2(=O)O[C@H](COCc3ccccc3)[C@@H](OCc3ccccc3)[C@H](OCc3ccccc3)[C@H]2O)cc1 | 15 µM | –
CO[C@@H]1[C@@H](OCc2ccccc2)[C@H](OCc2ccccc2)[C@@H](COCc2ccccc2)O[P@@]1(=O)c1ccccc1 | 16.6 µM | –
O=[P@]1(c2ccccc2)C[C@@H](OCc2ccccc2)[C@H](OCc2ccccc2)[C@@H](COCc2ccccc2)O1 | 8.3 µM | –
O=[P@]1(c2cccc(C(F)(F)F)c2)O[C@H](COCc2ccccc2)[C@@H](OCc2ccccc2)[C@H](OCc2ccccc2)[C@H]1O | > 25 µM | –
N[C@@H]1[C@@H](OCc2ccccc2)[C@H](OCc2ccccc2)[C@@H](COCc2ccccc2)O[P@@]1(=O)c1ccccc1 | 16.3 µM | –
Cc1ccc([P@@]2(=O)O[C@H](COCc3ccccc3)[C@@H](OCc3ccccc3)[C@H](OCc3ccccc3)[C@H]2O)cc1 | > 25 µM | –
O=[P@@]1(c2cccc(F)c2)O[C@H](COCc2ccccc2)[C@@H](OCc2ccccc2)[C@H](OCc2ccccc2)[C@@H]1O | > 25 µM | –
CSC(=S)O[C@@H]1[C@@H](OCc2ccccc2)[C@H](OCc2ccccc2)[C@@H](COCc2ccccc2)O[P@@]1(=O)c1ccccc1 | 14 µM | –
Cn1nnc2c(C(N)=O)ncn2c1=O [TEMOZOLOMIDE] | – | growth inhibition (GI) [11]: Active; growth inhibition (GI) [12]: Active; Activity [16]: Active; Activity [3]: Non-toxic; Activity [4]: Non-toxic; Activity [5]: Non-toxic
